From patent US10266545B2, “Coumarin derivative as antiviral agent, pharmaceutical composition thereof, its preparation and use” (I-NOVA MEDICINSKA ISTRAZIVANJA D.O.O., priority 2016, dated 2019)

System: HIV-1
Assay: Microtiter infectivity assay: protection of MT-4 cells from cytopathic effect of HIV-1 (MTT)
Format: cell-based, human immunodeficiency virus 1 (HIV-1) subtype B
Details: for IC50: Human immunodeficiency virus 1, MT4, inhibits 50% viral replication; for Survival (% protection): MT-4 cells infected with HIV-1; for SI = CC50/IC50: selectivity index, MT-4 cells, MTT assay
Experimental: The first study of antiviral activity of compound 1 and the control compound 2 was performed on example of its influence on replication of human immunodeficiency virus 1 (HIV-1) by microtiter infectivity assay in cell culture and by evaluation of concentration of compound 1 or 2, which inhibits virus replication by 50% (IC50) as well as by selectivity index (SI).
The cell line used in this study was also the MT-4 cell line as described above.
A microplate assay of infectivity in cell culture, based on consideration of a cytopathic effect of the virus was described in the literature, see reference 8. At least 4 different concentrations: 10×MNC, MNC^−1, MNC^−2, and MNC^−3 were used.
In each trial, the following controls were set: • (i) cell control—only cells in culture medium and not infected with the virus; and • (ii) viral control—one column to cells infected with the virus were added only medium (200 μl) without the test compound 1 or the control compound 2.
The activity of compound 1 or control compound 2 against the cytopathic effect of HIV-1 was expressed as percentage (%) protection (survival) of the cells defined by the following formula:
[formula] wherein: • ODVS=absorption of cells infected and treated with compound 1 or 2 • ODVC=absorption of the virus-infected cells (virus control without compound 1 or 2), and • ODCC=absorption of uninfected cells (cell control)
The inhibitory concentration 50% (IC50) was defined as the concentration of test compound 1 or control compound 2, expressed in mM, which inhibits 50% viral replication. IC50 was determined directly from the curve “dose (concentration)—response (anti-HIV effect)”. The IC50 was expressed as percentage (%) of: • (i) cell viability which was obtained by the MTT assay; or • (ii) percentage (%) inhibition of enzyme reverse transcriptase (RT) activity.
On the basic of the data about CC50 and IC50 for the test substance 1 or control substance 2, the selectivity index (SI) value was estimated.
The compounds 1 or 2 were dissolved in dimethyl sulfoxide (DMSO; Sigma-Aldrich, USA) to a concentration of 1 mol/l (1 M) and after diluted in cell growth medium RPMI 1640 with 2% heat inactivated fetal bovine serum (FBS; Sigma-Aldrich, USA). All further solutions of compounds 1 or 2 were prepared ex tempore.
MT-4 cell line was not infected with HIV-1 and was used as a classic model for reproduction of acute infection with HIV-1. The cells were cultivated in RPMI 1640 growth medium supplemented with 15% fetal bovine serum (FBS; Sigma-Aldrich, USA), 100 U/ml penicillin G sodium (Sigma-Aldrich, USA), and 100 μg/ml streptomycin sulphate (Sigma-Aldrich, USA).
HIV-1 culture fluid was chronically infected and producing HIV-1 subtype B cell line H9/HTLV III B. The culture fluid was centrifuged and collected as a virus stock. The latter, used in the experiments, was of predetermined infectivity of 2·10^6 infectious virions/ml according to the microtiter infectivity assay based on the cytopathic effect of HIV, through ingestion of MTT, containing protein 24 antigen (p24) and enzyme reverse transcriptase (RT).
After counting the cells, they were resuspended in growth medium at a concentration of 6-8·10^4 cells/100 μl. Followed screening of cell suspensions (100 μl/well of that above) into sterile 96-well plates pretreated with poly-L-lysine (PLL). Since the final volume of the culture medium in each well was 200 μl, additional 100 μl of 10% FBS (containing no cells) was added. At the end of rows and columns were not seeded cells, but only culture medium without FBS.
After 24 h, the supernatant was decanted and added in 50 μl HIV-1 in dilution 10^−1. One or two columns were not infected, acting as the control cells. The plate was placed in an incubator at 37° C. and 5% content of CO2, for 1 h. The virus was then removed and in one or two columns of infected cells were added 200 μl medium containing the appropriate concentration of the test substance 1 or the control substance 2. […]

[1] = MT-4 cells infected with HIV-1, MTT assay

O=c1oc2cc(O)cc(O)c2c(O)c1-c1coc2c1c(=O)oc1cc(O)cc(O)c12 [Compound 1, 7,9-dihydroxy-3-(4,5,7-trihydroxy-2-oxo-2H-chromene-3-yl)-4H-furo[3,2-c]chromen-4-one]
IC50 [1]: 10 nM
Survival (% protection) (concentration 0.000001 mM): 0%
Survival (% protection) (concentration 0.00001 mM): 50%
Survival (% protection) (concentration 0.0001 mM): 55%
Survival (% protection) (concentration 0.001 mM): 60%
Survival (% protection) (concentration 0.005 mM): 75%
Survival (% protection) (concentration 0.01 mM (MNC)): 92%
% protection of the MT-4 cells in MNC (Table 3, MT-4 cells infected with HIV-1, MTT assay, at MNC): 100%
SI = CC50/IC50: 1000 · 10^3

O=c1oc2cc(O)c(O)cc2c(O)c1-c1coc2c1c(=O)oc1cc(O)c(O)cc12 [Compound 2, 7,8-dihydroxy-3-(4,6,7-trihydroxy-2-oxo-2H-chromen-3-yl)-4H-furo[3,2-c]chromen-4-one, reference compound]
IC50 [1]: 5000 nM
Survival (% protection) (concentration 0.000001 mM): 0%
Survival (% protection) (concentration 0.00001 mM): 0%
Survival (% protection) (concentration 0.0001 mM): 0%
Survival (% protection) (concentration 0.001 mM): 25%
Survival (% protection) (concentration 0.005 mM): 50%
Survival (% protection) (concentration 0.01 mM (MNC)): 55%
SI = CC50/IC50: 2 · 10^3
